The text below walks through data of publication PMC7987348, “Structural basis for human TRPC5 channel inhibition by two distinct inhibitors” (eLife, 2021).

The Hill slope is the slope factor of the fitted curve.

For one experiment, the target named is T1, hTRPC5 N443L (Homo sapiens, UniProt Q9UL62, N443L).
T1 construct: We use full-length nontagged hTRPC5 construct for FLIPR assay unless indicated otherwise; expressed in transfected cells; host or cells: AD293
T1 sequence (Q9UL62 1-973 N443L): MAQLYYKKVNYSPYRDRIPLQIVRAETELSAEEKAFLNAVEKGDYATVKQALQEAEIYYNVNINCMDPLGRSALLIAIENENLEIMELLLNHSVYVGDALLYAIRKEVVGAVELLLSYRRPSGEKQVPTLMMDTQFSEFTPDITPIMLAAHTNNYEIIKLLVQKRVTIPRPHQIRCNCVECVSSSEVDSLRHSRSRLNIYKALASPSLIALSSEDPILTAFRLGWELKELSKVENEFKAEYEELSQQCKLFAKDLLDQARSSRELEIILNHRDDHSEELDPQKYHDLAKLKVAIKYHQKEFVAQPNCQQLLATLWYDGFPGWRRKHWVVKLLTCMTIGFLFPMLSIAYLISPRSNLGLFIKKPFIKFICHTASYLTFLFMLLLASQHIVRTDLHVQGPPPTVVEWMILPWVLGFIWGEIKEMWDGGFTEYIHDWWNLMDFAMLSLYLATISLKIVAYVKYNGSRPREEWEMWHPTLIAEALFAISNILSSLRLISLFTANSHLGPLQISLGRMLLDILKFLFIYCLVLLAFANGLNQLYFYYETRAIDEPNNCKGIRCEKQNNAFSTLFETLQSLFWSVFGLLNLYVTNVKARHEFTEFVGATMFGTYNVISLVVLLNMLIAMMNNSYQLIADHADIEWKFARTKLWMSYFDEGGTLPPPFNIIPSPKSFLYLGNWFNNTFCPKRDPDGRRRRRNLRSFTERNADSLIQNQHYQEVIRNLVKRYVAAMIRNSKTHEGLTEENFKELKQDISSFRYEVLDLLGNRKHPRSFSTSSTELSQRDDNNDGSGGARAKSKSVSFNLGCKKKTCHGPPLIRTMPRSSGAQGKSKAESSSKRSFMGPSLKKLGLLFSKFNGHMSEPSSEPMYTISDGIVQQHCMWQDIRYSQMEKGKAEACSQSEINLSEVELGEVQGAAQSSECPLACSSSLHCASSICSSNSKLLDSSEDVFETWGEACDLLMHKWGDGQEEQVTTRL
The experiment can be described thus: FLIPR calcium assay, hTRPC5 mutant N443L. In kind it is cell-based. As to the method:
[…]. Then the suspended cell culture was further diluted for 5.4- to 7-fold with culture medium and seeded onto black well, clear bottom, poly-D-lysine-coated 96-well plate (Costar) and cultured overnight. We use full-length nontagged hTRPC5 construct for FLIPR assay unless indicated otherwise. hTRPC5 plasmids were transfected into AD293 cells (60-80% confluence) with PEI. 30–40 hr post-transfection, culture medium was discarded and cells were incubated with 50 μl per well of 4 μM Rhod-2/AM (AAT Bioquest) in TARODES’s buffer (10 mM HEPES, 150 mM NaCl, 4 mM KCl, 2 mM MgCl2, 2 mM CaCl2, 11 mM glucose, pH 7.4) supplemented with 0.02% Pluronic F-127 (Sigma) for 5 min in dark at room temperature. Then dye was removed and replaced with 50 μl of TARODE’s buffer per well. The application of compounds and detection of intracellular calcium elevation were performed using FLIPR-TETRA (Molecular Devices) at room temperature (25–27°C). Fluorescence signals were read with excitation/emission at 510–545/565–625 nm.
[…]. Then fluorescence was measured for 300 s.
Buffer A contains 2× concentration of working concentration of inhibitor. […]. for control-Min, both buffer A and buffer B were replaced by TARODE’s buffer.
[…]; the average of fluorescence value of last 20 time points was considered as the ‘end fluorescence’. The value of ‘end fluorescence’ minus ‘start fluorescence’ was considered as ‘signal value’ for each well. […].
Three independent experiments were performed on different days (biological replicates), with each experiment containing three replicates (technique replicates).

The subject of a further experiment is TRPC5. More on the design: method as in Richter et al., 2014; Zhou et al., 2017; Zhu et al., 2015. The note with it: ref Richter et al., 2014; Zhou et al., 2017; Zhu et al., 2015; read-out: IC50 for inhibition of TRPC5; cited from earlier work.
The test system of the next experiment is TRPC7. Further details: method as in Richter et al., 2014. The note with it: ref Richter et al., 2014; cited from earlier work.
A further experiment addresses T2, hTRPC5 (Homo sapiens, UniProt Q9UL62).
T2 sequence (Q9UL62 1-973): T1 sequence (Q9UL62 1-973 N443L) with L443N
The experiment can be described thus: Whole cell recording of EA-elicited hTRPC5 currents in low calcium condition. The note with it: 50 μM CMZ; 200 nM EA; 1 mM EGTA and 1 mM EDTA to chelate intracellular Ca2+; −60 mV.

Changes are numbered by the printed parent chain. Like-named read-outs stand apart in the source and are kept apart here.

Regarding `Clc1ccc(Cn2c(CN3CCCC3)nc3ccccc32)cc1` [CMZ, clemizole], the Hill slope at hTRPC5 N443L (CMZ) is on record as −2.42. Also, the IC50 at hTRPC5 N443L (CMZ, 14 mM extracellular calcium, read-out: IC50) was 10.4 µM; on hTRPC5 N443L (CMZ, log of IC50 in μM, logIC50 ± SEM, n = 3, read-out: LogIC50 (converted)), 10.5 µM; with TRPC5 it was 1 to 1.3 µM. Also, the remaining activity at 0.400391 µM at hTRPC5 N443L (read-out: normalized RFU (% WT), Clemizole 0.400391 μM, 14 mM Ca2+, each column one independent experiment) came to 89.5%. Further, the remaining activity at 0.800781 µM at hTRPC5 N443L (read-out: normalized RFU (% WT), Clemizole 0.800781 μM, 14 mM Ca2+, each column one independent experiment) stood at 64.6%. Further, the remaining activity at 3.20312 µM at hTRPC5 N443L (read-out: normalized RFU (% WT), Clemizole 3.20312 μM, 14 mM Ca2+, each column one independent experiment) was determined as 56.3%. Moreover, the remaining activity at 6.40625 µM at hTRPC5 N443L (read-out: normalized RFU (% WT), Clemizole 6.40625 μM, 14 mM Ca2+, each column one independent experiment) stood at 52.8%. The “fold more potent against TRPC5 than TRPC7” value in the experiment with TRPC7 is on record as 26 fold. In addition, at hTRPC5, the “inhibition of EA-elicited currents” value is given as “could inhibit EA-elicited currents”.
